Results: publication PMC3909264, “A Novel Acylaminoimidazole Derivative, WN1316, Alleviates Disease Progression via Suppression of Glial Inflammation in ALS Mouse Model” (PLoS ONE, 2014)
Structures can show the parent of a compound that is named as a salt.

Columns and labels:
HeLa cells = test: Detection of intracellular ROS, •OH and 4-HNE after oxidative insult; assay type: cell-based, human; conditions: 10 µM, 8 h, then menadione or FeSO4/H2O2 1 h
Method: HeLa cells (ATCC, CCL-2) cultured on poly-L-lysine-coated coverslips were treated with WN1316 (10 µM) or vehicle (DMSO) for 8 h and incubated with 10 µM H2DCF-DA for 30 min. Cells were then exposed to 60 µM menadione for 1 h. Confocal fluorescence images were obtained using Zeiss LSM 700 confocal microscope.
To detect the hydroxyl radical (•OH), we used hydroxyphenyl fluorescein (HPF) as a specific probe. In brief, HeLa cells were treated with WN1316 (10 µM) or vehicle (DMSO) for 8 h and then incubated with 100 µM HPF for 30 min at 37°C in Hanks’s buffer (Invitrogen). After washing with phosphate-buffered saline (PBS), the reaction buffer (0.1 mM FeSO4, 0.2 mM H2O2) was added, and cells were incubated for 1 h at 37°C to generate •OH. Confocal fluorescence images were obtained using the lambda mode of Zeiss LSM 510 Meta confocal microscope and analytical software.
HeLa cells cultured on poly-L-lysine-coated coverslips were treated with 10 µM WN1316 or DMSO for 8 h, and then incubated in fresh medium containing 60 µM menadione for 1 h. Cells were fixed in 0.1% glutaraldehyde/4% paraformaldehyde/PBS for 10 min, rinsed three times with PBS, and permeabilized with 0.1% Triton-X-100 for 15 min. […]

ALS(SOD1^G93A) mice = test: Post-onset oral administration in ALS(SOD1^G93A) mice: motor function, body weight, survival; assay type: in vivo
Method: In addition, congenic ALS(SOD1^G93A) transgenic mice on a B6 background were also generated by crossing B6SJL-TgN(SOD1-G93A)1Gur [ALS(SOD1^G93A)] males (Jackson Laboratory) to B6 females for more than 11 generations. Both congenic ALS mice were used throughout this study.
The lines were maintained as hemizygotes by mating ALS(SOD1^H46R) and ALS(SOD1^G93A) males with B6 females. Offspring were genotyped by PCR using genomic DNA from tail tissue. Mice were housed at 23°C with a 12 h light/dark cycle, in which water and food was available ad libitum. The condition of each animal was monitored weekly initially and then daily after disease onset. The lifespan was determined by the days from disease onset to the endpoint, in which mouse lost active and/or spontaneous movement. All animal experimental procedures were approved by the Institutional Animal Care and Use Committee at Tokai University.
WN1316 was dissolved in MQ water, and diluted with physiological saline. ALS(SOD1^H46R) transgenic mice were given WN1316 via gastric tube (CAT.No.4202, Fuchigami) at a dose of either 1 µg, 10 µg or 100 µg/5 ml/kg body weight. ALS(SOD1^G93A) transgenic mice were given 10 µg/kg WN1316. Animals simultaneously treated with physiological saline (vehicle group, 5 ml/kg) were used as controls.
To determine the onset of motor dysfunction in ALS(SOD1^H46R) transgenic mice, we adopted a balance beam test as previously described in detail. To determine the onset of motor dysfunction in ALS(SOD1^G93A) transgenic mice, we adopted both balance beam and grip strength tests. Grip strength test was assessed using a traction meter (BrainScience Idea Co., Ltd.). Each mouse was given three trials, and the highest limb strength score was recorded. For ALS(SOD1^G93A) transgenic mice, grip strength tests were started at 11 weeks of age and performed twice a week until an over 20% reduction compared with the initial limb strength score at 11 weeks of age was observed. Finally, a grade 3 in the balance beam test and over 20% reduction of limb strength score were defined as the sign of the disease onset in ALS(SOD1^G93A) transgenic mice.
The gross phenotypes were measured blindly. The body weight of each mouse was measured weekly initially and then daily after disease onset. Mice were assessed for gross behavior every week from 12 weeks of age in ALS(SOD1^H46R) mice and from 11 weeks of age in ALS(SOD1^G93A) mice until the endpoint. In particular, hind limb movement and rearing behavior of each animal were monitored weekly from 12 weeks of age until the end stage. The days from the disease onset to the endpoint were counted individually as the survival interval.
We assessed motor performance and coordination, and balance in the mice by the balance-beam test, vertical pole test, and footprint analysis as previously described in detail and grip strength test as described above. In brief, the balance-beam test was performed every day after the onset until mice were unable to stay on the bar. […] The highest vertical ascending distance was scored. […]
To evaluate the spontaneous motor activities in mice, we conducted cage activity and rearing performance tests by using SUPERMEX with infrared ray sensor monitor (Muromachi Kikai). Both cage activity and rearing performance were monitored for 2 consecutive nights starting at 18 weeks and 21 weeks of age in ALS(SOD1^H46R) mice and at 13 weeks, 17 weeks and 21 weeks of age in ALS(SOD1^G93A) mice. […]

[1] = system: differentiated SH-SY5Y cells; test: Anti-oxidative stress-induced neuronal cell death (AOND) analysis, AlamarBlue cell viability; assay type: cell-based, human
Method: Human neuroblastoma SH-SY5Y cells (ATCC, CRL-2266) were grown in Dulbecco’s modified Eagle’s medium (DMEM) supplemented with 10% fetal bovine serum (HyClone, Thermo Fisher Scientific Inc.), 100 U/ml penicillin, and 100 µg/ml streptomycin at 37°C in 5% CO2. For differentiation, SH-SY5Y cells were seeded at a density of 0.75×10^4 cells per well in 96-well plates (Primaria, BD Falcon) for 1 day, and cultured in the medium containing 10 µM all-trans retinoic acid for additional 5 days.
[…] Then, the cells were exposed to various concentrations of cytotoxins, including oxidative stressors [menadione, 10 to 80 µM for 4 to 6 h; α-naphthoquinone, 12.5 µM for 4 h; 6-hydroxydopamine (6-OHDA), 400 µM for 4 h], protein kinase inhibitor (staurosporine, 25 µM for 6 h) and phosphatase inhibitor (okadaic acid, 1 µM for 6 h), in fresh medium. Cell viability was measured by AlamarBlue assay (Invitrogen) as described previously.

[2] = Complexing with protein in human serum; assay type: in vitro ADME; conditions: human sera, unpublished data

Cc1cc(C)c(N(C)CC(=O)Nc2nc(-c3ccccn3)c[nH]2)c(C)c1 [WN1316, 2-[mesityl(methyl)amino]-N-[4-(pyridin-2-yl)-1H-imidazol-2-yl] acetamide trihydrochloride]
level of intracellular •OH and lipid peroxidation (HeLa cells): markedly reduced their levels
impact including weight gain or loss (ALS(SOD1^G93A) mice; 10 µg/kg/day p.o.): No impact
post-onset life span (survival interval) (ALS(SOD1^G93A) mice; 10 µg/kg/day p.o., n = 8, mean ± SD (vehicle 57.9±6.0)): 66.1 ± 12.0 days
balance beam test: duration from onset to the day the mouse was unable to stay on the bar (ALS(SOD1^G93A) mice; 10 µg/kg/day p.o., n = 8, mean ± SEM (vehicle 39.3±2.1)): 47.1 ± 3.0 days
prolongation of post-onset survival (ALS(SOD1^G93A) mice; 10 µg/kg/day p.o., vs vehicle): 14%
motor performance by footprint analysis (ALS(SOD1^G93A) mice; 10 µg/kg/day, 20 weeks of age (late symptomatic stage), vs vehicle): sustained motor performance
pre-treatment time required for AOND activity ([1]; 6 µM WN1316, then 60 µM menadione 4 h): > 8 h
concentration that militates against cytoprotection ([1]; 8 h treatment, then 60 µM menadione 4 h): > 20 µM
cytoprotection against oxidative stress-induced cell death ([1]; compound 24 h, then 60 µM menadione 4 h, compared with mother compound CPN-9): marked cytoprotection
selectivity of protection against various cytotoxins ([1]; menadione, α-naphthoquinone, 6-OHDA vs staurosporine, okadaic acid, 8 h pretreatment): greatest protection against oxidative stress-induced damage
protein complexing in serum [2]: complexes with protein
